Assay results taken from paper PMC11747885, “Potent inhibitors of the human RNA ligase Rlig1 highlights its role in RNA integrity maintenance under oxidative cellular stress” (Chemical Science, 2025).
Where “and” joins values, the source holds several entries; their conditions need not be identical. Identical values can stand only once. Like-named read-outs stand apart in the source and are kept apart here.

How the values were obtained:
Rlig1-AMP = target: T1, Rlig1-AMP (Homo sapiens, UniProt Q8N999); test: FRET-based high-throughput screening of inhibitors for Rlig1-AMP; format: biochemical; settings: for Raw data [w Enyzm]: with enzyme; for Raw data [w/o Enzym]: without enzyme; for 1-D Distance.npi: MedChemExpress library
T1 construct: made in house; host or cells: E. coli BL21 (DE3), pET15b-Rlig1
T1 sequence (Q8N999 whole entry): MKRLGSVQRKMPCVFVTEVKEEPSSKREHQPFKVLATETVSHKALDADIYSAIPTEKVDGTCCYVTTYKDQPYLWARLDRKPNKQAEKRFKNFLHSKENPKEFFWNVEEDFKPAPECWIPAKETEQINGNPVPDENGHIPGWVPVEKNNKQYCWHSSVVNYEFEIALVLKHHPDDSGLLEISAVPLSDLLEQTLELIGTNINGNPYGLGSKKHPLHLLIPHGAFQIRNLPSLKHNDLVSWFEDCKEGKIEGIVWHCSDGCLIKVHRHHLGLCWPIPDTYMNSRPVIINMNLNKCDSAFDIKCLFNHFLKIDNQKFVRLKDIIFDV

[1] = ref MedChemExpress, cited from earlier work
[2] = target: ATPase family AAA domain-containing protein 2 (ATAD2); parameters: method as in MedChemExpress; settings: ref MedChemExpress; cited from earlier work
LTB4 receptor = target: LTB4 receptor; parameters: method as in MedChemExpress [1]; settings: isolated human neutrophil cell membranes; ref MedChemExpress [1]; cited from earlier work
Pim-1 = tested on: Pim-1; parameters: method as in MedChemExpress; settings: ref MedChemExpress; cited from earlier work
Pim-2 = tested on: Pim-2; parameters: method as in MedChemExpress; settings: ref MedChemExpress; cited from earlier work
Pim-3 = tested on: Pim-3; parameters: method as in MedChemExpress; settings: ref MedChemExpress; cited from earlier work
NLRP3 inflammasome = tested on: NLRP3 inflammasome; parameters: method as in MedChemExpress; settings: ref MedChemExpress; cited from earlier work
JNK3 = tested on: JNK3; parameters: method as in MedChemExpress; settings: ref MedChemExpress; cited from earlier work
JNK1 = tested on: JNK1; parameters: method as in MedChemExpress; settings: ref MedChemExpress; cited from earlier work
JNK2 = tested on: JNK2; parameters: method as in MedChemExpress; settings: ref MedChemExpress; cited from earlier work
DPP-4 = tested on: DPP-4; parameters: method as in MedChemExpress [1]; settings: ref MedChemExpress [1]; cited from earlier work
all proteases tested = tested on: all proteases tested; parameters: method as in MedChemExpress; settings: selectivity; ref MedChemExpress; cited from earlier work
[3] = parameters: method as in MedChemExpress; settings: OGTT, oral 1 h prior to dextrose challenge, ref MedChemExpress, cited from earlier work
IKr, Cav1.2, and Nav1.5 = tested on: IKr, Cav1.2, and Nav1.5; parameters: method as in MedChemExpress; settings: ion channel activity; ref MedChemExpress; cited from earlier work
[4] = target: 168 radioligand binding or enzymatic assays; parameters: method as in MedChemExpress; settings: MDS Pharma, ref MedChemExpress, read-out: IC50 in all counterscreen assays; cited from earlier work
[5] = in DMSO; ref MedChemExpress; cited from earlier work
TMEM16A chloride channel = tested on: TMEM16A chloride channel; parameters: method as in MedChemExpress; settings: ref MedChemExpress; cited from earlier work
Marburg (MARV) = settings: ref MedChemExpress [1][2]; cited from earlier work
EBOV Zaire = settings: ref MedChemExpress [1][2]; read-out: IC50 infectious EBOV Zaire; cited from earlier work
hERG channel = tested on: hERG channel; parameters: method as in MedChemExpress; settings: ref MedChemExpress; cited from earlier work
[6] = sheet HTS hits, difference of raw data w/o and w enzyme
[7] = HTS hits, difference of raw data without and with enzyme

Compound: COc1cc(Cl)c(C(=O)N[C@@H](CN[C@H]2CC[C@@H](N)CC2)Cc2ccc(C#N)cc2)cc1-c1ccc(CN[C@H](C)c2ccc(C)cc2)o1 [BAY-850]
- 1-D Distance (Rlig1-AMP; HTS hits, difference of raw data w/o and w enzyme): 2218
- Raw data [w Enyzm] (Rlig1-AMP; HTS hits): 10576
- Raw data [w/o Enzym] (Rlig1-AMP; HTS hits): 12794
- solubility ([1]; DMSO): 62.5 mg/mL and 95.53 mM
- solubility ([1]; H2O): < 0.1 mg/mL
- IC50 [2]: 166 nM

Compound: CC(C)(c1ccc(O)cc1)c1ccc(OCc2cccc(COc3ccc(C(=N)N)cc3)c2)cc1.Cl [BIIL-260 (hydrochloride)]
- 1-D Distance.npi (Rlig1-AMP; sheet HTS hits): 102.737
- 1-D Distance (Rlig1-AMP; [6]): 216
- Raw data [w Enyzm] (Rlig1-AMP; sheet HTS hits): 4623
- Raw data [w/o Enzym] (Rlig1-AMP; sheet HTS hits): 4407
- Ki (LTB4 receptor): 1.7 nM

Compound: CN1CCCN(C(=O)c2cccc(-c3ccc(/C=C4/C(=O)Nc5ccc(Cl)cc54)o3)c2)CC1.Cl [CX-6258 (hydrochloride)]
- 1-D Distance.npi (Rlig1-AMP; HTS hits): 75.5915
- 1-D Distance (Rlig1-AMP; [7]): 1601
- Raw data [w Enyzm] (Rlig1-AMP; HTS hits): 4989
- Raw data [w/o Enzym] (Rlig1-AMP; HTS hits): 6590
- IC50 (Pim-2): 25 nM
- IC50 (Pim-3): 16 nM

Compound: CC(C)n1ccc(S(=O)(=O)NC(=O)Nc2c3c(cc4c2CCC4)CCC3)n1 [Emlenoflast (sodium)]
- 1-D Distance.npi (Rlig1-AMP; HTS hits): 80.6711
- 1-D Distance (Rlig1-AMP; [7]): 1207
- Raw data [w Enyzm] (Rlig1-AMP; HTS hits): 9218
- Raw data [w/o Enzym] (Rlig1-AMP; HTS hits): 10425
- IC50 (NLRP3 inflammasome): < 100 nM

Compound: O=C1Nc2ccccc2/C1=C1/Nc2ccccc2/C1=N\O [Indirubin-3′-oxime]
- 1-D Distance.npi (Rlig1-AMP; HTS hits): 72.577
- 1-D Distance (Rlig1-AMP; [7]): 1766
- Raw data [w Enyzm] (Rlig1-AMP; HTS hits): 1847
- Raw data [w/o Enzym] (Rlig1-AMP; HTS hits): 3613
- IC50 (JNK3): 1000 nM
- IC50 (JNK1): 800 nM
- IC50 (JNK2): 1400 nM

Compound: CS(=O)(=O)n1cc2c(n1)CN([C@H]1CO[C@H](c3cc(F)ccc3F)[C@@H](N)C1)C2 [Omarigliptin]
- 1-D Distance (Rlig1-AMP; [6]): 1732
- Raw data [w Enyzm] (Rlig1-AMP; sheet HTS hits): 9138
- Raw data [w/o Enzym] (Rlig1-AMP; sheet HTS hits): 10870
- IC50 (DPP-4): 1.6 nM
- IC50 (all proteases tested): > 67000 nM
- reduction in glucose AUC ([3]; 0.01 mg/kg): 7%
- reduction in glucose AUC ([3]; 0.3 mg/kg): 51%
- IC50 (IKr, Cav1.2, and Nav1.5): > 30000 nM
- IC50 [4]: > 10000 nM
- solubility, DMSO [5]: DMSO : 50 mg/mL (125.49 mM; Need ultrasonic)

Compound: CC(C)=CC[C@@H](O)C1=CC(=O)c2c(O)ccc(O)c2C1=O [Shikonin]
- 1-D Distance (Rlig1-AMP; [7]): 1574
- Raw data [w Enyzm] (Rlig1-AMP; HTS hits): 3611
- IC50 (TMEM16A chloride channel): 6500 nM

Compound: CN(C)CCOc1ccc(/C(=C(/CCCl)c2ccccc2)c2ccccc2)cc1.O=C(O)CC(O)(CC(=O)O)C(=O)O [Toremifene (citrate)]
- 1-D Distance.npi (Rlig1-AMP; sheet HTS hits): 77.3877
- 1-D Distance (Rlig1-AMP; [6]): 1366
- Raw data [w Enyzm] (Rlig1-AMP; sheet HTS hits): 9443
- IC50 (Marburg (MARV)): 2600 nM
- IC50 (EBOV Zaire): 70 nM

Compound: Tannic acid
- 1-D Distance.npi (Rlig1-AMP; HTS hits): 92.4189
- 1-D Distance (Rlig1-AMP; [7]): 691
- Raw data [w Enyzm] (Rlig1-AMP; HTS hits): 13343
- Raw data [w/o Enzym] (Rlig1-AMP; HTS hits): 14034
- IC50 (hERG channel): 3400 nM
